How the values were obtained:
Type in all cases: biochemical
[1] = target: TMPRSS2 (Homo sapiens, UniProt O15393); assay: PS-SCL / HyCoSuL substrate specificity screening, TMPRSS2; details: for P2 Position Substrate Activity for TMPRSS2 (percent substrate cleavage/proteolysis): residue fixed at P2 position of substrate library; for P2 Position Substrate Activity for TMPRSS2 (percent substrate cleavage/proteolysis) / P3 Position Substrate Activity for TMPRSS2 (percent substrate cleavage/proteolysis) / P4 Position Substrate Activity for TMPRSS2 (percent substrate cleavage/proteolysis): best recognized amino acid set to 100%; for P3 Position Various Amino Acids Substrate Activity, TMPRSS2 (percent substrate cleavage/proteolysis) / P3 Position Substrate Activity for TMPRSS2 (percent substrate cleavage/proteolysis): residue fixed at P3 position of substrate library; for P4 Position Various Amino Acids Substrate Activity, TMPRSS2 (percent substrate proteolysis/cleavage) / P4 Position Substrate Activity for TMPRSS2 (percent substrate cleavage/proteolysis): residue fixed at P4 position of substrate library
Chain of TMPRSS2 (O15393 whole entry): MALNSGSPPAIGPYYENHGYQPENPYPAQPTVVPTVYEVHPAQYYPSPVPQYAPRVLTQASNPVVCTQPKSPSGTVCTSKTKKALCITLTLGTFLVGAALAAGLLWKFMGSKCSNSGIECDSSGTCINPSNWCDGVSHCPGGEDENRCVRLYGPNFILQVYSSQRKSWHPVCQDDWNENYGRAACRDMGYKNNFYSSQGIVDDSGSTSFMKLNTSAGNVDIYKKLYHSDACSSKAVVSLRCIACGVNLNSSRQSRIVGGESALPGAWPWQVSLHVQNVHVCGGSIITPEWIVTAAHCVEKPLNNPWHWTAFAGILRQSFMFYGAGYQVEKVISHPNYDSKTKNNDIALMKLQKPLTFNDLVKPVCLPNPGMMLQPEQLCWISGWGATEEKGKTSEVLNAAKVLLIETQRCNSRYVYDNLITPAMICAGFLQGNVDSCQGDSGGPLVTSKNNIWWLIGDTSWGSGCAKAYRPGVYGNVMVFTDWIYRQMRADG

[2] = target: T1, matriptase (Homo sapiens, UniProt Q9Y5Y6); assay: HyCoSuL P4-P2 substrate specificity screening, matriptase; details: for P2 Position Substrate Activity for matriptase (percent substrate cleavage/proteolysis): residue fixed at P2 position; for P2 Position Substrate Activity for matriptase (percent substrate cleavage/proteolysis) / P3 Position Substrate Activity for matriptase (percent substrate cleavage/proteolysis) / P4 Position Substrate Activity for matriptase (percent substrate cleavage/proteolysis): P1-Arg HyCoSuL, 100 μM, best recognized amino acid set to 100%; for P3 Position Various Amino Acids Substrate Activity, matriptase (percent substrate cleavage/proteolysis): residue fixed at P3 position of substrate library; for P3 Position Substrate Activity for matriptase (percent substrate cleavage/proteolysis): residue fixed at P3 position; for P4 Position Various Amino Acids Substrate Activity, matriptase (percent substrate proteolysis/cleavage): residue fixed at P4 position of substrate library; for P4 Position Substrate Activity for matriptase (percent substrate cleavage/proteolysis): residue fixed at P4 position
T1 sequence (Q9Y5Y6 1-855): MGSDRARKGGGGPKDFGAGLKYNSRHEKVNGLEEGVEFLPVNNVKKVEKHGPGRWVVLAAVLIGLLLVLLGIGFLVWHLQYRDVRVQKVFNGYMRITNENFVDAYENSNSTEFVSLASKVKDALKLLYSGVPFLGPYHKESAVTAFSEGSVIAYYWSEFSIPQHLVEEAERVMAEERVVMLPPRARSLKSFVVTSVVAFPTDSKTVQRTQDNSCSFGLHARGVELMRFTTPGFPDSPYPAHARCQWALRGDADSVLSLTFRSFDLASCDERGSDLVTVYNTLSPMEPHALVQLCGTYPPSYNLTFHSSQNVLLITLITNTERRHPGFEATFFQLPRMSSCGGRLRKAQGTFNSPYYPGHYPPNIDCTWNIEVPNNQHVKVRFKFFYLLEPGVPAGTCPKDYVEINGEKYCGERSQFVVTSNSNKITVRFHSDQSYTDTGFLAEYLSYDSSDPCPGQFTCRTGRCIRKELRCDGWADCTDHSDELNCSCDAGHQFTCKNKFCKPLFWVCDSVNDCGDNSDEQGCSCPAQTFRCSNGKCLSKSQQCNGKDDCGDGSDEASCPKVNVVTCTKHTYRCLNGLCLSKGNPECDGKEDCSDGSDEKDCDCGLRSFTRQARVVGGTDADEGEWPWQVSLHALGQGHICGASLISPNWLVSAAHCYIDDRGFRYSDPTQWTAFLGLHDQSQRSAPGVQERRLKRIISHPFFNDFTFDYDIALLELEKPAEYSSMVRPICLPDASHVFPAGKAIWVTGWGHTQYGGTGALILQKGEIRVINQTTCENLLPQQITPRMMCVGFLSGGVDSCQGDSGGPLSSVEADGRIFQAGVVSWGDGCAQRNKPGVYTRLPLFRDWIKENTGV

[3] = target: T2, HGFA (Homo sapiens, UniProt Q04756); assay: HyCoSuL P4-P2 substrate specificity screening, HGFA; details: for P2 Position Substrate Activity for HGFA (percent substrate cleavage/proteolysis): residue fixed at P2 position; for P2 Position Substrate Activity for HGFA (percent substrate cleavage/proteolysis) / P3 Position Substrate Activity for HGFA (percent substrate cleavage/proteolysis) / P4 Position Substrate Activity for HGFA (percent substrate cleavage/proteolysis): P1-Arg HyCoSuL, 100 μM, best recognized amino acid set to 100%; for P3 Position Substrate Activity for HGFA (percent substrate cleavage/proteolysis): residue fixed at P3 position; for P4 Position Substrate Activity for HGFA (percent substrate cleavage/proteolysis): residue fixed at P4 position; for P3 Position Various Amino Acids Substrate Activity, HGFA (percent substrate cleavage/proteolysis): residue fixed at P3 position of substrate library; for P4 Position Various Amino Acids Substrate Activity, HGFA (percent substrate proteolysis/cleavage): residue fixed at P4 position of substrate library
T2 sequence (Q04756 373-655): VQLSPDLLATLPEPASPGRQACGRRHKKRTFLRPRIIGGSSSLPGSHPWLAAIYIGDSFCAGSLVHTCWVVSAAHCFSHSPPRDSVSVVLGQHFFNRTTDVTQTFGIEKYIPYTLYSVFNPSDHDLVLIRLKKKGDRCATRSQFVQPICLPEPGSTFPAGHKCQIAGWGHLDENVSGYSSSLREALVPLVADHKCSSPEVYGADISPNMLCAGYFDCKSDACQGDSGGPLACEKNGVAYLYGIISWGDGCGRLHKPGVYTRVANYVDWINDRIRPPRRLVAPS

[4] = target: T3, hepsin (Homo sapiens, UniProt P05981); assay: HyCoSuL P4-P2 substrate specificity screening, hepsin; details: for P2 Position Substrate Activity for hepsin (percent substrate cleavage/proteolysis): residue fixed at P2 position; for P2 Position Substrate Activity for hepsin (percent substrate cleavage/proteolysis) / P3 Position Substrate Activity for hepsin (percent substrate cleavage/proteolysis) / P4 Position Substrate Activity for hepsin (percent substrate cleavage/proteolysis): P1-Arg HyCoSuL, 100 μM, best recognized amino acid set to 100%; for P3 Position Substrate Activity for hepsin (percent substrate cleavage/proteolysis): residue fixed at P3 position; for P4 Position Substrate Activity for hepsin (percent substrate cleavage/proteolysis): residue fixed at P4 position; for P3 Position Various Amino Acids Substrate Activity, hepsin (percent substrate cleavage/proteolysis): residue fixed at P3 position of substrate library; for P4 Position Various Amino Acids Substrate Activity, hepsin (percent substrate proteolysis/cleavage): residue fixed at P4 position of substrate library
T3 construct: purchased R&D Systems 4776-SE-010
T3 sequence (P05981 163-417 limits assumed): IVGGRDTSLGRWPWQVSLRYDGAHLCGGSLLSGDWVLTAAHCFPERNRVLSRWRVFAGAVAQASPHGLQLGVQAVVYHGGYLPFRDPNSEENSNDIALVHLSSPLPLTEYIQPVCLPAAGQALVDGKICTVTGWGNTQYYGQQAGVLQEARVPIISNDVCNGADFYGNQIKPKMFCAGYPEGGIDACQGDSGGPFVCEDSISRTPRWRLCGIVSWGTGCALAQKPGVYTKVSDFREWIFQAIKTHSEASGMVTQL
T3 sequence (P05981 1-162 partner limits assumed): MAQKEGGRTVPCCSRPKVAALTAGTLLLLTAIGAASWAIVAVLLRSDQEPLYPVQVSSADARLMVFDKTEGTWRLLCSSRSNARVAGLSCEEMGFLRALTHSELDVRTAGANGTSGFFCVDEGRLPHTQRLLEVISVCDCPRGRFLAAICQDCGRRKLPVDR

| Molecule | P2 Position Substrate Activity for TMPRSS2 (percent substrate cleavage/proteolysis) [1] [%] | P3 Position Various Amino Acids Substrate Activity, TMPRSS2 (percent substrate cleavage/proteolysis) [1] [%] | P4 Position Various Amino Acids Substrate Activity, TMPRSS2 (percent substrate proteolysis/cleavage) [1] [%] | P2 Position Substrate Activity for matriptase (percent substrate cleavage/proteolysis) [2] [%] | P3 Position Various Amino Acids Substrate Activity, matriptase (percent substrate cleavage/proteolysis) [2] [%] | P3 Position Substrate Activity for matriptase (percent substrate cleavage/proteolysis) [2] [%] | P4 Position Various Amino Acids Substrate Activity, matriptase (percent substrate proteolysis/cleavage) [2] [%] | P4 Position Substrate Activity for matriptase (percent substrate cleavage/proteolysis) [2] [%] | P2 Position Substrate Activity for HGFA (percent substrate cleavage/proteolysis) [3] [%] | P3 Position Substrate Activity for HGFA (percent substrate cleavage/proteolysis) [3] [%] | P4 Position Substrate Activity for HGFA (percent substrate cleavage/proteolysis) [3] [%] | P3 Position Substrate Activity for TMPRSS2 (percent substrate cleavage/proteolysis) [1] [%] | P4 Position Substrate Activity for TMPRSS2 (percent substrate cleavage/proteolysis) [1] [%] | P2 Position Substrate Activity for hepsin (percent substrate cleavage/proteolysis) [4] [%] | P3 Position Substrate Activity for hepsin (percent substrate cleavage/proteolysis) [4] [%] | P4 Position Substrate Activity for hepsin (percent substrate cleavage/proteolysis) [4] [%] | P3 Position Various Amino Acids Substrate Activity, HGFA (percent substrate cleavage/proteolysis) [3] [%] | P4 Position Various Amino Acids Substrate Activity, HGFA (percent substrate proteolysis/cleavage) [3] [%] | P3 Position Various Amino Acids Substrate Activity, hepsin (percent substrate cleavage/proteolysis) [4] [%] | P4 Position Various Amino Acids Substrate Activity, hepsin (percent substrate proteolysis/cleavage) [4] [%] |
| --- | --- | --- | --- | --- | --- | --- | --- | --- | --- | --- | --- | --- | --- | --- | --- | --- | --- | --- | --- | --- |
| NC1(C(=O)O)CCCC1 [AC5C] | 0.00 | 0.00 | 17.02 |  |  |  |  |  |  |  |  |  |  |  |  |  |  |  |  |  |
| N[C@@H](Cc1ccc(F)cc1)C(=O)O [L-Phe(4-F)] | 100.00 | 14.82 | 21.80 | 65 | 11 |  | 8 |  | 4.84 |  |  |  |  | 32.86 |  |  | 15.01 | 11.22 | 5.16 | 27.78 |
| CC(C)CC[C@H](N)C(=O)O [L-hLeu] | 8.15 | 35.41 | 53.91 | 5 | 25 |  | 27 |  | 72.69 |  |  |  |  | 14.44 |  |  | 23.44 | 14.86 | 13.84 | 41.61 |
| D-Ala | 0.00 | 0.00 | 27.00 | 0 | 2 |  | 6 |  | 0.00 |  |  |  |  | 0.00 |  |  | 9.84 | 7.11 | 48.09 | 18.44 |
| D-Arg | 0.00 |  |  | 0 | 8 | 7.82 | 18 | 17.66 | 0.00 | 29.10 | 23.20 | 0.00 | 24.43 | 0.00 | 66.08 | 44.37 |  |  |  |  |
| L-Met | 8.64 | 45.55 | 38.95 | 5 | 41 |  |  |  |  |  |  |  |  |  |  |  |  |  |  |  |

More lines, now with the values ahead:

| P2 Position Substrate Activity for TMPRSS2 (percent substrate cleavage/proteolysis) [1] [%] | P3 Position Various Amino Acids Substrate Activity, TMPRSS2 (percent substrate cleavage/proteolysis) [1] [%] | P4 Position Various Amino Acids Substrate Activity, TMPRSS2 (percent substrate proteolysis/cleavage) [1] [%] | P2 Position Substrate Activity for matriptase (percent substrate cleavage/proteolysis) [2] [%] | P3 Position Various Amino Acids Substrate Activity, matriptase (percent substrate cleavage/proteolysis) [2] [%] | P3 Position Substrate Activity for matriptase (percent substrate cleavage/proteolysis) [2] [%] | P4 Position Various Amino Acids Substrate Activity, matriptase (percent substrate proteolysis/cleavage) [2] [%] | P4 Position Substrate Activity for matriptase (percent substrate cleavage/proteolysis) [2] [%] | P2 Position Substrate Activity for HGFA (percent substrate cleavage/proteolysis) [3] [%] | P3 Position Substrate Activity for HGFA (percent substrate cleavage/proteolysis) [3] [%] | P4 Position Substrate Activity for HGFA (percent substrate cleavage/proteolysis) [3] [%] | P3 Position Substrate Activity for TMPRSS2 (percent substrate cleavage/proteolysis) [1] [%] | P4 Position Substrate Activity for TMPRSS2 (percent substrate cleavage/proteolysis) [1] [%] | P2 Position Substrate Activity for hepsin (percent substrate cleavage/proteolysis) [4] [%] | P3 Position Substrate Activity for hepsin (percent substrate cleavage/proteolysis) [4] [%] | P4 Position Substrate Activity for hepsin (percent substrate cleavage/proteolysis) [4] [%] | P3 Position Various Amino Acids Substrate Activity, HGFA (percent substrate cleavage/proteolysis) [3] [%] | P4 Position Various Amino Acids Substrate Activity, HGFA (percent substrate proteolysis/cleavage) [3] [%] | P3 Position Various Amino Acids Substrate Activity, hepsin (percent substrate cleavage/proteolysis) [4] [%] | P4 Position Various Amino Acids Substrate Activity, hepsin (percent substrate proteolysis/cleavage) [4] [%] | Molecule |
| --- | --- | --- | --- | --- | --- | --- | --- | --- | --- | --- | --- | --- | --- | --- | --- | --- | --- | --- | --- | --- |
| 52.14 |  |  | 0 | 75 | 75.40 | 49 | 48.54 | 0.00 | 30.67 | 16.90 | 71.88 | 63.90 | 0.00 | 82.17 | 91.83 |  |  |  |  | N[C@@H](CCCCOCc1ccccc1)C(=O)O [L-Nle(O-Bzl)] |
| 24.73 | 0.00 | 15.31 | 10 | 0 |  | 11 |  | 1.75 |  |  |  |  | 10.66 |  |  | 0.83 | 9.25 | 1.64 | 34.68 | O=C(O)[C@@H]1CCCCN1 [L-Pip] |
| 32.33 | 21.50 | 16.80 | 1 | 7 |  | 6 |  | 1.12 |  |  |  |  | 7.81 |  |  | 18.14 | 2.49 | 0.00 | 0.00 | Cn1cc(C[C@H](N)C(=O)O)c2ccccc21 [L-Trp(Me)] |
| 28.86 | 19.38 | 34.19 | 8 | 18 |  | 29 |  | 8.33 |  |  |  |  | 51.85 |  |  | 9.51 | 11.66 | 16.77 | 43.08 | CC(C)[C@H](N)C(=O)O [L-Val] |
